Experimental data: patent US20050020576A1, “Kappa agonist compounds and pharmaceutical formulations thereof” (priority 1996, published 2005)
Where “and” joins values, the source holds several entries; their conditions need not be identical. Identical values can stand only once. Counter-ions that a name gives are not always drawn. Like-named read-outs stand apart in the source and are kept apart here.

Legend:
[1] = tested on: formalin-induced flinching; test: animal or person; assay type: in vivo, male Sprague-Dawley rats; conditions: for inhibition in vivo at 0.3 µM: Rattus norvegicus, read-out: Formalin (% A @ 300 nM) i. paw
[2] = molecular target: cloned human kappa receptor (Homo sapiens, UniProt P41145); test: biochemical; assay type: binding
Sequence of cloned human kappa receptor (P41145 whole entry): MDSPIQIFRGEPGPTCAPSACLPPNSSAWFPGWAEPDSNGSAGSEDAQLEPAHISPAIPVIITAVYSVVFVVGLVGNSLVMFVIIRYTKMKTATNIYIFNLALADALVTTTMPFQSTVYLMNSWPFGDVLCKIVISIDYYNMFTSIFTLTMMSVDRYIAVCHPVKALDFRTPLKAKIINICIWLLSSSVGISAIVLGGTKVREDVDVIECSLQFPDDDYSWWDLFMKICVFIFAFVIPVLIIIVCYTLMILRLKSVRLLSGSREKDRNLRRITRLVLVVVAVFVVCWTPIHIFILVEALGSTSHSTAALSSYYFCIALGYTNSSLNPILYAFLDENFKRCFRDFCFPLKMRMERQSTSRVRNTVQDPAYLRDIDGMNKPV

[3] = read-out: Ki(nM) [3H]-Diprenorphin κ

CNS(=O)(=O)c1ccccc1CC(=O)N(C)C(CN1CCCC1)c1ccccc1F (racemic) [Example 147]
Late Phase Formalin (i. paw), % @ 300 ([1]; rat, in vivo): 56% @ 300 | Ki ([2]; Ki (nM) [3H]-Diprenorphin κ): 10 nM

N-[1R,2R-trans-4-Trifluoromethyl-N-methyl-N-[2-(1-pyrrolidinyl)cyclohexyl]-phenylacetamido]glycine Hydrochloride [Example 4k]
Formalin (% A @ 300 μg i-paw) ([1]; rat, in vivo): 80% @ 300 | [3H]-Diprenorphin, % @ 1 μM [2]: 28% @ 1 μM

CN(C(=O)Cc1ccc(Cl)c(Cl)c1)[C@H](CN1CCCC1)c1cccc(NC(=O)CCC(=O)NCC(=O)O)c1 [Example 3j, 2-(3,4-Dichlorophenyl)-N-methyl-N-{(1R,S)-1-[3-(3-(((hydroxycarbonyl)-methyl)aminocarbonyl)propionamido)phenyl]-2-(1-pyrrolidinyl)ethyl}acetamide hydrochloride]
Late Phase Formalin, % @ 300 ([1]; rat, in vivo): 38% @ 300 | Ki ([2]; Ki (nM) [3H]-Diprenorphin κ): 2.3 nM

N-[1S. 2S-trans-4-Trifluoromethyl-N-methyl-N-[2-(1-pyrrolidinyl)cyclohexyl]-phenylacetamido]glycine Hydrochloride [Example 4j]
Formalin (% A @ 300 μg i-paw) ([1]; rat, in vivo): 91% @ 300 | Ki ([2]; read-out: Ki(nM) [3H]-Diprenorphin): 10.3 nM

CS(=O)(=O)O[C@H]1CCN(CC2CN(S(C)(=O)=O)CCN2C(=O)Cc2ccc(Cl)c(Cl)c2)C1 (stereo partly drawn) [Example 1jj, 4-Methanesulfonyl-1-[(3,4-dichlorophenyl)acetyl]-2-(R,S)-[3-(S)-methanesulfonate-1-(pyrrolidinyl)methyl]piperazine hydrochloride]
inhibition in vivo at 0.3 µM [1]: 49% | Ki ([2]; Ki, nM 3H-Diprenorphin): 11.5 nM

CS(=O)(=O)N1CCN(C(=O)Cc2ccc(Cl)c(Cl)c2)C(CN2CC[C@H](O)C2)C1 (mixture of isomers) [Example 1ll, 4-Methylsulphonyl-1-[(3,4-dichlorophenyl)acetyl]-2-(R,S)-[(3-(S)-hydroxy-1-pyrrolidinyl)methyl]piperazine hydrochloride]
inhibition in vivo at 0.3 µM [1]: 52% | Ki ([2]; Ki, nM 3H-Diprenorphin): 2.86 nM

O=C(Cc1ccc(C(F)(F)F)cc1)N1CCN(C(=O)C(F)(F)F)CC1CN1CCCC1 (racemic) [Example 1h, 4-Trifluoroacetyl-1-[(-4-trifluoromethylphenyl)acetyl]-2-(R,S)-(1-pyrrolidinyl)methyl]piperazine hydrochloride]
inhibition in vivo at 0.3 µM [1]: 100% | Ki ([2]; Ki, nM 3H-Diprenorphin): 50 nM

CNS(=O)(=O)c1cc(CC(=O)N(C)[C@H](CN2CCCC2)c2ccccc2)ccc1Cl.Cl [Example 3l, 2-[3-(N-Methylsulfamoyl)-4-chlorophenyl]-N-methyl-N-{[1S]-1-phenyl-2-[1-pyrrolidinyl]ethyl}acetamide hydrochloride]
Late Phase Formalin, % @ 300 ([1]; rat, in vivo): 73% @ 300 | Ki ([2]; Ki (nM) [3H]-Diprenorphin κ): 3.8 nM

CN(C(=O)Cc1ccc(C(F)(F)F)cc1NS(C)(=O)=O)[C@H](CN1CC[C@H](O)C1)c1ccccc1 [Example 126, 2-(2-N-Methylsulfonamido-2-amino-4-trifluoromethylphenyl)-N-methyl-N-[(1S)-1-phenyl-2-[1-(3S)-(3-hydroxypyrrolidinyl)ethyl]]acetamide]
Late Phase Formalin (i. paw), % @ 300 ([1]; rat, in vivo): 93% @ 300 | Ki ([2]; Ki (nM) [3H]-Diprenorphin κ): 0.61 nM

COc1ccc(C(CN2CCCC2)N(C)C(=O)Cc2ccccc2NS(C)(=O)=O)cc1 (racemic) [Example 128]
Late Phase Formalin (i. paw), % @ 300 ([1]; rat, in vivo): 56% @ 300 | Ki ([2]; Table IIIB, read-out: Ki(nM) [3H]-Diprenorphin κ): 110 nM

CN(C(=O)Cc1ccc(Cl)c(Cl)c1)[C@H](CN1CCCC1)c1cccc(NS(N)(=O)=O)c1 (racemic) [Example 3c, 2-(3,4-Dichlorophenyl)-N-methyl-N-[(1R,S)-1-(3-sulfamidophenyl)-2-(1-pyrrolidinyl)ethyl]acetamide hydrochloride]
Late Phase Formalin A50 ([1]; rat, in vivo): 0.27 mg/kg | Ki ([2]; Ki (nM) [3H]-Diprenorphin κ): 0.12 nM

COc1cc(CC(=O)N(C)[C@H](CN2CCCC2)c2ccccc2)c(S(=O)(=O)N(C)C)cc1OC [Example 136, 2-[2-(N-Dimethylsulfamoyl)-4,5-dimethoxyphenyl]-N-methyl-N-[(1S)-1-phenyl-2-[(1-pyrrolidinyl)ethyl]]acetamide]
Late Phase Formalin (i. paw), % @ 300 ([1]; rat, in vivo): 97% @ 300 | Ki ([2]; Ki (nM) [3H]-Diprenorphin κ): 0.44 nM

COC(=O)CNC(=O)c1ccccc1CC(=O)N(C)[C@H](CN1CCCC1)c1ccccc1 [Example 3mm, Methyl N-[2-(2-pheny)-N-methyl-N-{[1S]-1-phenyl-2-(1-pyrrolidinyl)ethyl}acetamido]2-oxo-glycinate hydrochloride]
Late Phase Formalin, % @ 300 ([1]; rat, in vivo): 53% @ 300 | Ki ([2]; Ki (nM) [3H]-Diprenorphin κ): 16.4 nM

CN(C(=O)Cc1cc2c(cc1S(=O)(=O)N(C)C)OCO2)[C@H](CN1CCCC1)c1ccccc1 [Example 132, 2-[2-(N-Dimethylsulfamoyl)-4,5-methylenedioxyphenyl]-N-methyl-N-[(1S)-1-phenyl-2-[(1-pyrrolidinyl)ethyl]]acetamide]
Late Phase Formalin (i. paw), % @ 300 ([1]; rat, in vivo): 100% @ 300 | Ki ([2]; Ki (nM) [3H]-Diprenorphin κ): 0.25 nM

COC(=O)N1CCN(C(=O)Cc2ccc(Cl)c(Cl)c2)[C@@H](CN2CCC[C@H]2CO)C1 [Example 1ii, Methyl-4-[(3,4-dichlorophenyl)acetyl]-3-(S)-[(2-(S)-pyrrolidinemethanol)methyl]-1-piperazinecarboxlate hydrochloride]
inhibition in vivo at 0.3 µM [1]: 60% | Ki ([2]; Ki, nM 3H-Diprenorphin): 21.5 nM

COC(=O)N1CCN(C(=O)Cc2ccc(S(C)(=O)=O)cc2)C(CN2CCC[C@H]2CO)C1 (mixture of isomers) [Example 1o, Methyl-4-[(4-methylsulphonylphenyl)acetyl]-3-(R,S)-[(2-(S)-pyrrolidinemethanol)methyl]-1-piperazinecarboxylate hydrochloride]
inhibition in vivo at 0.3 µM [1]: 41% | Ki ([2]; Table IA, read-out: Ki(nM) (3H)-Diprenorphin): 133 nM

(S)-2-(2-N-Methylsulfonamido-2-aminophenyl)-N-methyl-N-1-(4-hydroxyphenyl)-2-(1-pyrrolidinyl)ethyl]acetamide [Example 129B]
Late Phase Formalin (i. paw), % @ 300 ([1]; rat, in vivo): >46% @ 300 | Ki [2, 3]: 75 nM

COC(=O)N1CCN(C(=O)Cc2ccccc2N(S(C)(=O)=O)S(C)(=O)=O)C(CN2CCCC2)C1 (racemic) [Example 1d, Methyl-4-[(2-[N,N-bis-methylsulfonamido]phenyl)acetyl]-3-(R,S)-[(1-pyrrolidinyl)methyl]-1-piperazinecarboxylate hydrochloride]
inhibition in vivo at 0.3 µM [1]: 77% | Ki ([2]; Ki, nM 3H-Diprenorphin): 7.6 nM

CC(=O)N1CCN(C(=O)Cc2ccc(C(F)(F)F)cc2)C(CN2CCCC2)C1 (racemic) [(R,S-10b), hydrochloride]
Late Phase Formalin, % @ 300; i.paw ([1]; rat, in vivo): 89% @ 300 | Ki ([2]; Ki, nM 3H-Diprenorphin): 26 nM and 24 nM

CS(=O)(=O)N1CCN(C(=O)Cc2ccc(Cl)c(Cl)c2)C(CN2CC[C@H](OC(=O)Cc3ccc(Cl)c(Cl)c3)C2)C1 (stereo partly drawn) [Example 1kk, 4-Methylsulphonyl-1-[(3,4-dichlorophenyl)acetyl]-2-(R,S)-[3-(S)-(3′,4′dichlorophenyl acetate)-1-(pyrrolidinyl)methyl]piperazine hydrochloride]
inhibition in vivo at 0.3 µM [1]: 52% | Ki ([2]; Ki, nM 3H-Diprenorphin): 5.1 nM

COc1ccc(CC(=O)N(C)[C@H](CN2CCCC2)c2ccccc2)cc1NS(C)(=O)=O [Example 122, 2-(3-N-Methylsulfonamido-3-amino-4-methoxyphenyl)-N-methyl-N-[(1S)-1-phenyl-2-(1-pyrrolidinyl)ethyl]acetamide methane sulfonate]
Late Phase Formalin (i. paw), % @ 300 ([1]; rat, in vivo): 85% @ 300 | Ki ([2]; Ki (nM) [3H]-Diprenorphin κ): 0.8 nM

COC(=O)N1CCN(C(=O)Cc2ccc(Cl)c(Cl)c2)C(CN2CCCC2CO)C1 [Example 1l, Methyl-4-[(3,4-dichlorophenyl)acetyl]-3-(R)-[(2-(S)-pyrrolidinemethanol)methyl]-1-piperazinecarboxylate hydrochloride]
Formalin A50 mg/kg s.c. ([1]; rat, in vivo, sc): 1.7 mg/kg | Ki ([2]; Ki, nM 3H-Diprenorphin): 3.5 nM

CN(C(=O)Cc1cc2c(cc1S(=O)(=O)N(C)C)OCO2)[C@H](CN1CC[C@H](O)C1)c1ccccc1 [Example 133, 2-[2-(N-Dimethylsulfamoyl)-4,5-methylenedioxyphenyl]-N-methyl-N-[(1S)-1-phenyl-2-[1-(3S)-(3-hydroxypyrrolidinyl)ethyl]]acetamide]
Late Phase Formalin (i. paw), % @ 300 ([1]; rat, in vivo): 98% @ 300 | Ki [2, 3]: 0.64 nM

COc1cc(CC(=O)N(C)[C@H](CN2CC[C@H](O)C2)c2ccccc2)c(S(=O)(=O)N2CCOCC2)cc1OC [Example 141, 2-[2-N-(Morpholinesulfamoyl)-4,5-dimethoxyphenyl]-N-methyl-N-[(1S)-1-phenyl-2-[1-(3S)-(3-hydroxypyrrolidinyl)ethyl]]acetamide]
Late Phase Formalin (i. paw), % @ 300 ([1]; rat, in vivo): 98% @ 300 | Ki ([2]; Ki (nM) [3H]-Diprenorphin κ): 1.3 nM

CNS(=O)(=O)c1cc(OC)ccc1CC(=O)N(C)[C@H](CN1CCCC1)c1ccccc1 [Example 145, 2-[2-(N-Methylsulfamoyl)-4-methoxyphenyl]-N-methyl-N-[(1S)-1-phenyl-2-[(1-pyrrolidinyl)ethyl]]acetamide]
Late Phase Formalin (i. paw), % @ 300 ([1]; rat, in vivo): 83% @ 300 | Ki [2, 3]: 20.5 nM

CN(C(=O)Cc1ccc(OCc2ccccc2)c(NS(C)(=O)=O)c1)[C@H](CN1CCCC1)c1ccccc1 [Example 123, 2-(3-N-Methylsulfonamido-3-amino-4-benzyloxyphenyl)-N-methyl-N-[(1S)-1-phenyl-2-(1-pyrrolidinyl)ethyl]acetamide]
Late Phase Formalin (i. paw), % @ 300 ([1]; rat, in vivo): 87% @ 300 | Ki ([2]; Ki (nM) [3H]-Diprenorphin κ): 23.6 nM

CNS(=O)(=O)c1ccc(CC(=O)N(C)[C@H](CN2CC[C@H](O)C2)c2ccccc2)cc1 [Example 146, 2-[4-N-(Methylsulfamoyl)-phenyl]-N-methyl-N-[(1S)-1-phenyl-2-[1-(3S)-(3-hydroxypyrrolidinyl)ethyl]]acetamide]
Late Phase Formalin (i. paw), % @ 300 ([1]; rat, in vivo): 52% @ 300 | Ki ([2]; Ki (nM) [3H]-Diprenorphin κ): 1 nM

COc1cc(CC(=O)N(C)[C@H](CN2CCCC2)c2ccccc2)c(S(=O)(=O)N2CCCC2)c(OC)c1OC [Example 143, 2-[2-(N-Pyrrolidinesulfamoyl)-3,4,5-trimethoxyphenyl]-N-methyl-N-[(1S)-1-phenyl-2-[(1-pyrrolidinyl)ethyl]]acetamide]
Late Phase Formalin (i. paw), % @ 300 ([1]; rat, in vivo): 98% @ 300 | Ki [2, 3]: 2.1 nM
